Laboratory results reported in PubChem BioAssay (NCI).
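Exposure lasted 48 hours, with cells grown in 96-well plates and compounds tested at five concentrations. TGI denotes the concentration required for complete inhibition of growth.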

Key:
Assay in all cases: inhibition of tumour cell growth, NCI panel, 48 h
786-0 renal = test system: 786-0 renal
A498 renal = test system: A498 renal
A549 NSCLC = test system: A549 NSCLC
ACHN renal = test system: ACHN renal
BT-549 breast = test system: BT-549 breast
CAKI-1 renal = test system: CAKI-1 renal
CCRF-CEM leukemia = test system: CCRF-CEM leukemia
DU-145 prostate = test system: DU-145 prostate
EKVX NSCLC = test system: EKVX NSCLC
HCC-2998 colon = test system: HCC-2998 colon
HCT-116 colon = test system: HCT-116 colon
HCT-15 colon = test system: HCT-15 colon
HL-60(TB) leukemia = test system: HL-60(TB) leukemia
HOP-62 NSCLC = test system: HOP-62 NSCLC
HOP-92 NSCLC = test system: HOP-92 NSCLC
HS 578T breast = test system: HS 578T breast
HT29 colon = test system: HT29 colon
IGROV1 ovarian = test system: IGROV1 ovarian
K-562 leukemia = test system: K-562 leukemia
LOX IMVI melanoma = test system: LOX IMVI melanoma
M14 melanoma = test system: M14 melanoma
MALME-3M melanoma = test system: MALME-3M melanoma
MCF7 breast = test system: MCF7 breast
MDA-MB-231 breast = test system: MDA-MB-231 breast
MDA-MB-435 = test system: MDA-MB-435
MDA-N = test system: MDA-N
MOLT-4 leukemia = test system: MOLT-4 leukemia
NCI-H23 lung = test system: NCI-H23 lung
NCI-H460 lung = test system: NCI-H460 lung
NCI-H522 lung = test system: NCI-H522 lung
NCI/ADR-RES ovarian = test system: NCI/ADR-RES ovarian
OVCAR-3 ovarian = test system: OVCAR-3 ovarian
OVCAR-4 ovarian = test system: OVCAR-4 ovarian
OVCAR-5 ovarian = test system: OVCAR-5 ovarian
OVCAR-8 ovarian = test system: OVCAR-8 ovarian
PC-3 prostate = test system: PC-3 prostate
RPMI-8226 leukemia = test system: RPMI-8226 leukemia
RXF 393 renal = test system: RXF 393 renal
SF-268 CNS = test system: SF-268 CNS
SF-295 CNS = test system: SF-295 CNS
SK-MEL-2 melanoma = test system: SK-MEL-2 melanoma
SN12C renal = test system: SN12C renal
SNB-19 CNS = test system: SNB-19 CNS
SNB-75 CNS = test system: SNB-75 CNS
SR leukemia = test system: SR leukemia
SW-620 colon = test system: SW-620 colon
T-47D breast = test system: T-47D breast
TK-10 renal = test system: TK-10 renal
U251 CNS = test system: U251 CNS
UACC-257 melanoma = test system: UACC-257 melanoma
UACC-62 melanoma = test system: UACC-62 melanoma
UO-31 renal = test system: UO-31 renal
COLO 205 colon = test system: COLO 205 colon
KM12 colon = test system: KM12 colon
NCI-H226 lung = test system: NCI-H226 lung
SF-539 CNS = test system: SF-539 CNS
SK-MEL-28 melanoma = test system: SK-MEL-28 melanoma
SK-MEL-5 melanoma = test system: SK-MEL-5 melanoma
SK-OV-3 ovarian = test system: SK-OV-3 ovarian

O=C1CSC(c2c(O)ccc3ccccc23)N1n1c(=S)[nH]nc(/C=C/c2c(O)ccc3ccccc23)c1=O (stereo not given)
TGI (786-0 renal): 14.5 µM | TGI (A498 renal): 18.4 µM | TGI (A549 NSCLC): 21.8 µM | TGI (ACHN renal): 11.2 µM | TGI (BT-549 breast): 23.5 µM | TGI (CAKI-1 renal): 11.4 µM | TGI (CCRF-CEM leukemia): 3.04 µM | TGI (DU-145 prostate): 15.3 µM | TGI (EKVX NSCLC): 51.3 µM | TGI (HCC-2998 colon): 22 µM | TGI (HCT-116 colon): 16.6 µM | TGI (HCT-15 colon): 23.2 µM | TGI (HL-60(TB) leukemia): 0.874 µM | TGI (HOP-62 NSCLC): 22 µM | TGI (HOP-92 NSCLC): 65.3 µM | TGI (HS 578T breast): > 100 µM | TGI (HT29 colon): 36.6 µM | TGI (IGROV1 ovarian): 26.7 µM | TGI (K-562 leukemia): 19.3 µM | TGI (LOX IMVI melanoma): 17.5 µM | TGI (M14 melanoma): 3.32 µM | TGI (MALME-3M melanoma): 16.8 µM | TGI (MCF7 breast): 18.9 µM | TGI (MDA-MB-231 breast): 20.7 µM | TGI (MDA-MB-435): 14.9 µM | TGI (MDA-N): > 100 µM | TGI (MOLT-4 leukemia): > 100 µM | TGI (NCI-H23 lung): 23 µM | TGI (NCI-H460 lung): 11.5 µM | TGI (NCI-H522 lung): 21 µM | TGI (NCI/ADR-RES ovarian): 14.7 µM | TGI (OVCAR-3 ovarian): 17.7 µM | TGI (OVCAR-4 ovarian): 40.3 µM | TGI (OVCAR-5 ovarian): 38.1 µM | TGI (OVCAR-8 ovarian): 21.4 µM | TGI (PC-3 prostate): 22.5 µM | TGI (RPMI-8226 leukemia): 17.4 µM | TGI (RXF 393 renal): 13.7 µM | TGI (SF-268 CNS): 40.3 µM | TGI (SF-295 CNS): 37.2 µM | TGI (SK-MEL-2 melanoma): 15.1 µM | TGI (SN12C renal): 14.2 µM | TGI (SNB-19 CNS): 76.6 µM | TGI (SNB-75 CNS): 11.4 µM | TGI (SR leukemia): 10.9 µM | TGI (SW-620 colon): 52.1 µM | TGI (T-47D breast): 15.1 µM | TGI (TK-10 renal): 28.2 µM | TGI (U251 CNS): 16.4 µM | TGI (UACC-257 melanoma): 14.3 µM | TGI (UACC-62 melanoma): 10.1 µM | TGI (UO-31 renal): 15.1 µM

CC(C)c1ccc(O)c(O)c(=O)c1 (tested in a mixture with another compound)
TGI (786-0 renal): > 100 µM | TGI (A498 renal): 25.2 µM | TGI (A549 NSCLC): > 100 µM | TGI (ACHN renal): 13 µM | TGI (BT-549 breast): 98.9 µM | TGI (CAKI-1 renal): > 52.2 µM | TGI (COLO 205 colon): 17.1 µM | TGI (DU-145 prostate): 33.7 µM | TGI (EKVX NSCLC): 47.7 µM | TGI (HCC-2998 colon): 4.04 µM | TGI (HCT-116 colon): > 42.9 µM | TGI (HCT-15 colon): > 100 µM | TGI (HL-60(TB) leukemia): 2.39 µM | TGI (HOP-62 NSCLC): > 100 µM | TGI (HOP-92 NSCLC): > 83 µM | TGI (HS 578T breast): 69.7 µM | TGI (HT29 colon): > 100 µM | TGI (IGROV1 ovarian): > 54.9 µM | TGI (K-562 leukemia): > 100 µM | TGI (KM12 colon): > 82.1 µM | TGI (LOX IMVI melanoma): 27.2 µM | TGI (M14 melanoma): 15.5 µM | TGI (MALME-3M melanoma): 5.44 µM | TGI (MCF7 breast): > 100 µM | TGI (MDA-MB-231 breast): 26.7 µM | TGI (MDA-MB-435): > 100 µM | TGI (MDA-N): > 100 µM | TGI (MOLT-4 leukemia): 5.53 µM | TGI (NCI-H226 lung): > 23.4 µM | TGI (NCI-H23 lung): > 26.3 µM | TGI (NCI-H460 lung): 0.899 µM | TGI (NCI-H522 lung): 17.5 µM | TGI (NCI/ADR-RES ovarian): > 36.9 µM | TGI (OVCAR-3 ovarian): > 100 µM | TGI (OVCAR-4 ovarian): > 100 µM | TGI (OVCAR-5 ovarian): > 100 µM | TGI (OVCAR-8 ovarian): > 100 µM | TGI (PC-3 prostate): 15.6 µM | TGI (RPMI-8226 leukemia): 9.79 µM | TGI (RXF 393 renal): 12 µM | TGI (SF-268 CNS): > 61.5 µM | TGI (SF-295 CNS): > 100 µM | TGI (SF-539 CNS): > 21.1 µM | TGI (SK-MEL-2 melanoma): 3.02 µM | TGI (SK-MEL-28 melanoma): 23.8 µM | TGI (SK-MEL-5 melanoma): 8.13 µM | TGI (SK-OV-3 ovarian): > 100 µM | TGI (SN12C renal): > 100 µM | TGI (SNB-19 CNS): > 100 µM | TGI (SNB-75 CNS): 22.8 µM | TGI (SR leukemia): 4.02 µM | TGI (SW-620 colon): > 100 µM | TGI (T-47D breast): > 68.6 µM | TGI (TK-10 renal): 9.6 µM | TGI (U251 CNS): 4.98 µM | TGI (UACC-257 melanoma): 2.03 µM | TGI (UACC-62 melanoma): 12.1 µM | TGI (UO-31 renal): > 41.2 µM
